Experimental findings from patent US20090042904A1 (LABORATORIOS DEL DR. ESTEVE S.A., priority 2004, published 2009) are described below.

For the experiment, the target named is T1, 5HT6-human recombinant receptor (Homo sapiens, UniProt P50406).
T1 construct: purchased Receptor Biology; host or cells: HEK-293 cells (membranes)
T1 sequence (P50406 whole entry): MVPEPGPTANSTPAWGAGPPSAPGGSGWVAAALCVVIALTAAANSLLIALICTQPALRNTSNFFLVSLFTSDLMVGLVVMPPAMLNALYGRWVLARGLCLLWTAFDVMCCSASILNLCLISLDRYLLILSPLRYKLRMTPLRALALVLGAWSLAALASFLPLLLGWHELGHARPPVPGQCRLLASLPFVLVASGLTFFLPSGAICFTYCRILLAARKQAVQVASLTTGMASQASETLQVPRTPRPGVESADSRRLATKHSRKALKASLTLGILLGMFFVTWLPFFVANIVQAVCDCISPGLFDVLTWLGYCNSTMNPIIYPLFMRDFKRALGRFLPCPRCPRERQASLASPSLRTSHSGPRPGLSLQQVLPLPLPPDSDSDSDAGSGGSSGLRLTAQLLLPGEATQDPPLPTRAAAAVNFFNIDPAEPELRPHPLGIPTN
The experiment can be described thus: Binding to serotonin receptor 5-HT6 ([3H]-LSD displacement). To be noted: membranes of HEK-293 cells expressing the receptor; radioligand [3H]-LSD 2.7 nM; 60 minutes at 37° C. The method, then:
I) Binding to Serotonin Receptor 5-HT6
Cell membranes of HEK-293 cells expressing the 5HT6-human recombinant receptor were supplied by Receptor Biology. In said membranes the receptor concentration is 2.18 pmol/mg protein and the protein concentration is 9.17 mg/ml. The experimental protocol follows the method of B. L. Roth et al. [B. L. Roth, S. C. Craigo, M. S. Choudhary, A. Uluer, F. J. Monsma, Y. Shen, H. Y. Meltzer, D. R. Sibley: Binding of Typical and Atypical Antipsychotic Agents to 5-Hydroxytryptamine-6 and Hydroxytryptamine-7 Receptors. The Journal of Pharmacology and Experimental Therapeutics, 1994, 268, 1403] with the following slight changes. The respective part of the literature description is hereby incorporated by reference and forms part of the disclosure.
The commercial membrane is diluted (1:40 dilution) with the binding buffer: 50 mM Tris-HCl, 10 mM MgCl2,0.5 mM EDTA (pH 7.4). The radioligand used is [^3H]-LSD at a concentration of 2.7 nM with a final volume of 200 μl. Incubation is initiated by adding 100 μl of membrane suspension, (≈22.9 μg membrane protein), and is prolonged for 60 minutes at a temperature of 37° C. The incubation is ended by fast filtration in a Brandel Cell Harvester through fiber glass filters made by Schleicher & Schuell GF 3362 pretreated with a solution of polyethylenimine at 0.5%. The filters are washed three times with three milliliters of buffer Tris-HCl 50 mM pH 7.4. The filters are transferred to flasks and 5 ml of Ecoscint H liquid scintillation cocktail are added to each flask. The flasks are allowed to reach equilibrium for several hours before counting with a Wallac Winspectral 1414 scintillation counter. Non-specific binding is determined in the presence of 100 μM of serotonin. Tests were made in triplicate. The inhibition constants (Ki, nM) were calculated by non-linear regression analysis using the program EBDA/LIGAND described in Munson and Rodbard, Analytical Biochemistry, 1980, 107, 220, the respective part of which is hereby incorporated by reference and forms part of the disclosure.
The binding of the substituted phenyl-piperazine compounds to the 5-HT6 receptor was determined as described above.
On to `COc1ccc(N2CCN(C)CC2)cc1NCc1ccccc1` [Example 11, Benzyl-[2-methoxy-5-(4-methyl-piperazin-1-yl)-phenyl]-amine], for which the Ki was found to be 409 nM.
The value for `CN1CCN(c2ccc(NS(=O)(=O)c3ccccc3)c(NCc3ccccc3)c2)CC1` [Example 24, N-[2-Benzylamino-4-(4-methyl-piperazin-1-yl)-phenyl]-benzenesulfonamide] was 60.2 nM; that for `CN1CCN(c2ccc(OCc3ccccc3)c(NCCc3ccccc3)c2)CC1` [Example 9, [2-Benzyloxy-5-(4-methyl-piperazin-1-yl)-phenyl]-phenethyl-amine] was 1280 nM; that for `CN1CCN(c2ccc(C#N)c(NCc3ccccc3)c2)CC1` [Example 5, 2-Benzylamino-4-(4-methyl-piperazin-1-yl)-benzonitrile] was 108 nM.
Turning to `COC(=O)c1ccc(N2CCN(C)CC2)cc1NCCc1ccccc1` [Example 6, 4-(4-Methyl-piperazin-1-yl)-2-phenethylamino-benzoic acid methyl ester], the Ki was 462 nM.
To `CN1CCN(c2ccc(OCc3ccccc3)c(NCc3ccco3)c2)CC1` [Example 10] belongs 402 nM; to `CC(=O)N(Cc1ccccc1)c1ccc(N2CCN(C)CC2)cc1N` [Example 23, N-[2-Amino-4-(4-methyl-piperazin-1-yl)-phenyl]-N-benzyl-acetamide], 164 nM.
